Reference: patent publication US6451807B1, “Methods of treating sexual dysfunction in an individual suffering from a retinal disease, class 1 congestive heart failure, or myocardial infarction using a PDE5 inhibitor” (Lilly Icos, LLC., priority 1999, dated 2002)

Target: T1, Bovine PDE6 (Bos taurus, UniProt P11541+P23439)
T1 construct: Hypotonic extracts were prepared by suspending isolated ROS; tissue Dr. N. Virmaux, INSERM U338, Strasbourg; host or cells: bovine retina, rod outer segment hypotonic extract
T1 sequence (P11541 2-856 limits assumed): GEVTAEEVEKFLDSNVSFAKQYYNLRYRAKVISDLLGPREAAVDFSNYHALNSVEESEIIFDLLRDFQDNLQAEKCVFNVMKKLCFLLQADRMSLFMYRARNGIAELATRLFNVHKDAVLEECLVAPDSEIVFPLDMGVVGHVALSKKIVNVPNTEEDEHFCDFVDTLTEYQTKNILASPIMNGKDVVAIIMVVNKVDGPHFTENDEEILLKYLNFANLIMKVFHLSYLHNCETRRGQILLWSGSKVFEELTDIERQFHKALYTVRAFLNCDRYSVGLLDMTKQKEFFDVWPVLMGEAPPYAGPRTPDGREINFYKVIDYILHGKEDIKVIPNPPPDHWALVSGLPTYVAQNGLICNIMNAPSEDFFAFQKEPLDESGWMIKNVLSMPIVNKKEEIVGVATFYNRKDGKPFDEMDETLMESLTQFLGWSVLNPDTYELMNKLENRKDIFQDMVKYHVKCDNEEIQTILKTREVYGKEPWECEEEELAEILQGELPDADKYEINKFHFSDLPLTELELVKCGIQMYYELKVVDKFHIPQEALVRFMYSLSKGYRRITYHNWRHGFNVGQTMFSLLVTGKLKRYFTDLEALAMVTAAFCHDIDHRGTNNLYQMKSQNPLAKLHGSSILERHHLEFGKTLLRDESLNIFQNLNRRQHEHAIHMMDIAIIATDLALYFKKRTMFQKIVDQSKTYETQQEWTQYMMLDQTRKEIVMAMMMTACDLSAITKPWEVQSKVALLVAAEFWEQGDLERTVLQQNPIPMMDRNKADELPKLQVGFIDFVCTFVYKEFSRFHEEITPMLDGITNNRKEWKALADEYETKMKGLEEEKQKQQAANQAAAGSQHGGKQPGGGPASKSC
T1 sequence (P23439 2-850 limits assumed): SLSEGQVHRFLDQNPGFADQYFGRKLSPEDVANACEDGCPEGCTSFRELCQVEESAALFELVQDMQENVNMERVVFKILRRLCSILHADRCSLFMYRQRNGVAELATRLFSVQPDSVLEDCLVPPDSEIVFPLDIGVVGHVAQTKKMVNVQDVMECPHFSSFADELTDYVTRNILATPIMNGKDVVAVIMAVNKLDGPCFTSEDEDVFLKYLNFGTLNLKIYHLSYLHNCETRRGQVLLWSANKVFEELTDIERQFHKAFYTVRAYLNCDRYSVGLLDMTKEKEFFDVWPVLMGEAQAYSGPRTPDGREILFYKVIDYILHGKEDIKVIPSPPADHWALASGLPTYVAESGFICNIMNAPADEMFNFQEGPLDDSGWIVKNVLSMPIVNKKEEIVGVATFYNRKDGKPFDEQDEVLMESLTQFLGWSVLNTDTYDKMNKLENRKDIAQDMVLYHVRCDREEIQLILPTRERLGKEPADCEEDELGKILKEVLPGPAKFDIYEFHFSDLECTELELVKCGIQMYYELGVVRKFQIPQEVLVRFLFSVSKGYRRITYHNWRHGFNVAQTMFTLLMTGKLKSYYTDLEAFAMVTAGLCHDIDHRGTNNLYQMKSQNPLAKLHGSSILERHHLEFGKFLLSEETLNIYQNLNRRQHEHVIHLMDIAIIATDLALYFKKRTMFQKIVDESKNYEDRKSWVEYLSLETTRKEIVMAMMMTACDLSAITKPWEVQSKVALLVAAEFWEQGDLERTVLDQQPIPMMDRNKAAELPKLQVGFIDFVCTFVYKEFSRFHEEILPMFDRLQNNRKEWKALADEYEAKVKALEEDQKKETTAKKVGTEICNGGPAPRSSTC
T1 sequence (P04972 1-87 partner): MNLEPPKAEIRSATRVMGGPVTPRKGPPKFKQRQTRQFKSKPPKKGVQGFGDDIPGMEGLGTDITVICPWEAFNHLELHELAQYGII
Experiment: PDE6 enzyme inhibition, IC50 determination
Type: biochemical
Description: Bovine PDE6 was supplied by Dr. N. Virmaux, INSERM U338, Strasbourg. Bovine retinas were prepared as described by Virmaux et al., FEBS Letters, 12(6), pp. 325-328 (1971) and see also, A. Sitaramayya et al., Exp. Eye Res., 25, pp. 163-169 (1977). Briefly, unless stated otherwise, all operations were done in the cold and in dim red light. Eyes were kept in the cold and in the dark for up to four hours after slaughtering.
Preparation of bovine retinal outer segment (ROS) basically followed procedures described by Schichi et al., J. Biol. Chem., 224:529 (1969). In a typical experiment, 35 bovine retinas were ground in a mortar with 35 mL 0.066 M phosphate buffer, pH 7.0, made up to 40% with sucrose, followed by homogenization in a Potter homogenizer (20 up and down strokes). The suspension was centrifuged at 25,000×g for 20 minutes. The pellet was homogenized in 7.5 mL 0.006 M phosphate buffer (40% in sucrose), and carefully layered under 7.5 mL of phosphate buffer (containing no sucrose). Centrifugation was conducted in a swing-out rotor at 45,000×g for 20 minutes, and produced a pellet which is black at the bottom, and also a red band at the interface 0.066 M. phosphate—40% sucrose/0.066 M phosphate (crude ROS). The red material at the interface was removed, diluted with phosphate buffer, spun down to a pellet, and redistributed in buffered 40% sucrose as described above. This procedure was repeated 2 or 3 times until no pellet was formed. The purified ROS was washed in phosphate buffer and finally spun down to a pellet at 25,000×g for 20 minutes. All materials were then kept frozen until used.
Hypotonic extracts were prepared by suspending isolated ROS in 10 mM Tris-Cl pH 7.5, 1 mM EDTA, and 1 mM dithioerythritol, followed by centrifugation at 100,000×g for 30 minutes.
The preparation was reported to have a specific activity of about 35 nmoles cGMP hydrolyzed per minute per milligram protein.
Biophys. Acta, 384:430 (1975).

## CN1CC(=O)N2[C@H](c3ccc4c(c3)OCO4)c3[nH]c4ccccc4c3C[C@@H]2C1=O [Compound 5, (6R-trans)-6-(1,3-benzodioxol-5-yl)-2,3,6,7,12,12a-hexahydro-2-methylpyrazino[1′,2′:1,6]pyrido[3,4-b]indole-1,4-dione]
  IC50: 3.4 µM
